Values of other authors in US12016331B2, “Microemulsions and uses thereof as delivery systems” (ARCHER DANIELS MIDLAND COMPANY, priority 2012, dated 2024).

SMILES	LD 50 value, dermal toxicity
CCC(=O)O [propionic acid]	500 mg/kg
CC(O)C(=O)O (centres unmarked) [lactic acid]	greater than 3000 mg/Kg
